Where two headings read alike, the source gives them in different places.
Legend:
PTP1B [1] = biological target: T1, PTP1B (Homo sapiens, UniProt P18031); experiment: Inhibition of human recombinant tyrosine phosphatase PTP1B (DiFMUP fluorescence); type: biochemical; conditions: for Inhibition of PTP1B, percentage of inhibition of the control: 1 µM, control solvent only, SD did not exceed 6%; for Log IC50 ± SD PTP1B: logarithm of IC50; for IC50: read-out: IC50 PTP1B
T1 construct: purchased Sigma-Aldrich
T1 sequence (P18031 1-435): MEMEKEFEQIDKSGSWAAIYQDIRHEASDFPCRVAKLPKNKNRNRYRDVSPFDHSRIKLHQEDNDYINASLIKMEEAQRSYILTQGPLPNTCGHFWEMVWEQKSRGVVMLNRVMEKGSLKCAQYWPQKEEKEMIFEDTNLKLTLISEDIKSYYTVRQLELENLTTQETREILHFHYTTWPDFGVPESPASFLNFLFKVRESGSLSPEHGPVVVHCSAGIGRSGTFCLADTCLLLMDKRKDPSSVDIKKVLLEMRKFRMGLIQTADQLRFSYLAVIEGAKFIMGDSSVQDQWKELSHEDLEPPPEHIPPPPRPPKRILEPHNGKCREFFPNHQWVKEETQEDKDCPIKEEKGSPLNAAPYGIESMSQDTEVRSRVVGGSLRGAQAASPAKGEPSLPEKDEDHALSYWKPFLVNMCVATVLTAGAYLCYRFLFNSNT
Procedure, shortened: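 Human recombinant PTP1B (final 50 ng/mL) in buffer of 25 mM MOPS, 50 mM NaCl, 1 mM DTT and 0.05% Tween-20 (pH 7.0) was dispensed onto test compound in black 384-well plates. After 10 min, DiFMUP was added to 0.1 mM. Plates were incubated 20 min at 23 °C and fluorescence read (ex 355, em 560 nm). Assays were run in triplicate, with inhibition relative to enzyme-plus-vehicle control and IC50 fitted in GraphPad Prism.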

CDC25A = biological target: T2, CDC25A (Homo sapiens, UniProt P30304); experiment: Inhibition of human recombinant non-tyrosine phosphatase CDC25A (3-O-methylfluorescein phosphate); type: biochemical
T2 construct: purchased Sigma-Aldrich
T2 sequence (P30304 1-524): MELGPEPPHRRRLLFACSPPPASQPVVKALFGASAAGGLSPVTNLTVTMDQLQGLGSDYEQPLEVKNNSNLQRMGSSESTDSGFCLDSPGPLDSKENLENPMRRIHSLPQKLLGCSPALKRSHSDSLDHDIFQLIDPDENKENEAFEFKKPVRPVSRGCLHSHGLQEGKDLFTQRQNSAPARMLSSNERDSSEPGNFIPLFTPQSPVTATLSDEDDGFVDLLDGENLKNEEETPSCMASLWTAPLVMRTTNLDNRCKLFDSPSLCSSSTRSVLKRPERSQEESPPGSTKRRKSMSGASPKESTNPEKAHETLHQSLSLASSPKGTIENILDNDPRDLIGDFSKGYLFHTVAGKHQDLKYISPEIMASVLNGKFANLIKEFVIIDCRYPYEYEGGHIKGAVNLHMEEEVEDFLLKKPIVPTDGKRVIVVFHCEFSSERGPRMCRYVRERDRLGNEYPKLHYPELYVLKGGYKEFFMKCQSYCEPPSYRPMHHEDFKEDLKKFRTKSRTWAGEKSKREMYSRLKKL
Procedure, shortened: (§1)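 Compound pre-incubated 10 min with enzyme: PP2A at 0.5 U/mL in 50 mM Tris-HCl pH 7.0, 0.05% Tween-20, 125 µg/mL BSA with 0.1 mM DiFMUP; CDC25A at 400 ng/mL with 0.2 mM 3-O-methylfluorescein phosphate. Incubation 180 min at 23 °C; fluorescence (ex 355/em 560 nm) read, percent inhibition versus vehicle control, triplicate.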

PP2A = PP2A (Homo sapiens, UniProt P67775); experiment: Inhibition of human recombinant non-tyrosine phosphatase PP2A (DiFMUP); type: biochemical
Sequence of PP2A (P67775 whole entry): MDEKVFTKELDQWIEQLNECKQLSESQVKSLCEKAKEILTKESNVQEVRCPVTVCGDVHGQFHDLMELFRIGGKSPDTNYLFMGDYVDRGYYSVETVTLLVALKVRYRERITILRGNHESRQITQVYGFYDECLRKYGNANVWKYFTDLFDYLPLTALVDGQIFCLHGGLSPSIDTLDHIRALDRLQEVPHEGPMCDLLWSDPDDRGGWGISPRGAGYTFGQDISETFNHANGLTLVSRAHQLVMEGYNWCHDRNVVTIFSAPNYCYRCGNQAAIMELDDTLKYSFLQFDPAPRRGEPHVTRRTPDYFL
Procedure, shortened: as §1

adipocytes 3T3-L1 = experiment: Scintillation proximity assay, transport of [14C]-deoxy-D-glucose into adipocytes 3T3-L1; type: cell-based, mouse; conditions: 50 µM
Experimental: Adipocytes 3T3-L1 cell line (ATCC CRL-11605) derived from fibroblasts from mouse embryo tissue were cultured according to standard protocol in DMEM medium supplemented with 10% bovine calf serum, 100 IU/mL penicillin, and […] streptomycin at 37 °C in 5% CO2. Cells were seeded in 96-well poly-D-lysine-coated plates and cultured to reach confluency.
Scintillation proximity assay (SPA) is a method to measure the real-time accumulation of radiolabeled substrates by adherent cells with no filtration needed. Radioactivity concentrated closer to the scintillator embedded in the plastic bottom of each well provides a stronger signal than the radiolabeled substrate in the culture medium. Uptake of radiolabeled 2-deoxy-D-[U-14C]-glucose was conducted based on previous descriptions.
Adipocytes were washed and the medium was changed to the basal medium. After 24 h incubation, the tested complexes were added. After 2 h incubation at 37 °C in 5% CO2, the medium was changed to DMEM medium without glucose, with 0.1% BSA free from fatty acid, […] L-glutamine, and […] pyruvate. The tested complexes were added again, and further incubation for 4 h was conducted.
For cells proceeded as above, 2-deoxy-D-[U-14C]-glucose (250–350 mCi/mmol, NEC720A, PerkinElmer) solution in KRB with a total activity of 0.03 mCi was added to each well. […] Non-specific radioactivity was subtracted from each result (cpm). Two independent experiments with triplicates were conducted.

PTP1B [2] = biological target: T1, PTP1B; conditions: cited from earlier work

Cc1occc(=O)c1[O-].Cc1occc(=O)c1[O-].[O]=[V+2] [BMOV, bis(maltolato)oxidovanadium(IV), reference compound]
Inhibition of PTP1B, percentage of inhibition of the control (PTP1B [1]): 77% | Log IC50 ± SD PTP1B (PTP1B [1]): −6.83 ± 0.02 | IC50 (PTP1B [1]): 149 nM | Inhibition of CDC25A, percentage inhibition of control ± SD (CDC25A; 1 µM): 54 ± 1% | Inhibition of CDC25A, percentage inhibition of control ± SD (CDC25A; 10 µM): 61 ± 1% | Inhibition of PP2A, percentage inhibition of control ± SD (PP2A; 1 µM): 52 ± 15% | Inhibition of PP2A, percentage inhibition of control ± SD (PP2A; 10 µM): 63 ± 4% | Transport of [14C]-deoxy-D-glucose into 3T3-L1 adipocytes, % of control (adipocytes 3T3-L1): low activity

O=S(=O)([O-])[O-].[O]=[V+2] [VOSO4, reference compound]
Inhibition of PTP1B, percentage of inhibition of the control (PTP1B [1]): 62% | Log IC50 ± SD PTP1B (PTP1B [1]): −7.00 ± 0.07 | IC50 (PTP1B [1]): 99 nM | Inhibition of CDC25A, percentage inhibition of control ± SD (CDC25A; 1 µM): 54 ± 2% | Inhibition of CDC25A, percentage inhibition of control ± SD (CDC25A; 10 µM): 62 ± 1% | Inhibition of PP2A, percentage inhibition of control ± SD (PP2A; 1 µM): 32 ± 2% | Inhibition of PP2A, percentage inhibition of control ± SD (PP2A; 10 µM): 40 ± 3% | Transport of [14C]-deoxy-D-glucose into 3T3-L1 adipocytes, % of control (adipocytes 3T3-L1): low activity | IC50 (PTP1B [2]; lower end of published range): 18 nM | IC50 (PTP1B [2]; upper end of published range): 380 nM

Reference: article PMC10892041, “Vanadium Complexes with Thioanilide Derivatives of Amino Acids: Inhibition of Human Phosphatases and Specificity in Various Cell Models of Metabolic Disturbances” (Pharmaceuticals, 2024)
